According to patent US9617310B2 (priority 2013, dated 2017):

How the values were obtained:
[1] = test system: genotype 1b wild-type transient HCV replicon in Huh-7-derived cells; test: Transient-transfected HCV replicon, genotype 1b wild type; format: cell-based; conditions: Hepatitis C virus; transient-transfected replicon genotype 1b wild type, 72 h; read-out: EC50 1B WT
[2] = test system: genotype 3a stable HCV replicon (S52) in Huh-7-derived cells; test: Stable subgenomic HCV replicon, genotype 3a, Renilla luciferase; format: cell-based; conditions: Hepatitis C virus, 72 h, read-out: EC50 3A RLUC
[3] = test system: genotype 4a stable HCV replicon (ED43) in Huh-7-derived cells; test: Stable subgenomic HCV replicon, genotype 4a, Renilla luciferase; format: cell-based; conditions: Hepatitis C virus, 72 h, read-out: EC50 4A RLUC
Method in brief: (§1)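 Replicons carry hRLuc-neo, EMCV IRES and NS3-NS5B with adaptive mutations: 1a H77 P1496L/S2204I, 1b Con1 E1202G/T1280I/K1846T, 4a ED43 Q1691R/S2204I. EC50 came from non-linear regression versus DMSO and a triple-inhibitor full-inhibition control.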

[4] = test system: genotype 3a transient HCV replicon (S52) in Huh-7-derived cells; test: Transient-transfected HCV replicon, genotype 3a wild type; format: cell-based; conditions: Hepatitis C virus; transient-transfected replicon genotype 3a wild type, 72 h; read-out: EC50 3A WT
[5] = test system: NS3/4a protease inhibitor resistant variant R155K in genotype 1a transient HCV replicon; test: Transient-transfected HCV replicon, genotype 1a R155K; format: cell-based; conditions: Hepatitis C virus, 72 h, read-out: EC50 1A R155K
[6] = test system: genotype 1b stable HCV replicon (Con1) in Huh-7-derived cells; test: Stable subgenomic HCV replicon, genotype 1b, Renilla luciferase; format: cell-based; conditions: Hepatitis C virus, stable replicon genotype 1b, 72 h, read-out: EC50 1B RLUC
Method in brief: as §1

[7] = test system: NS3/4a protease inhibitor resistant variant D168A in genotype 1b transient HCV replicon; test: Transient-transfected HCV replicon, genotype 1b D168A; format: cell-based; conditions: Hepatitis C virus, 72 h, read-out: EC50 1B D168A
NS3 genotype 1b protease = target: T1, NS3 genotype 1b protease (Hepatitis C virus genotype 1b, UniProt Q9WMX2, E1202G); test: Ki determination, NS3 protease genotype 1b (fluorogenic depsipeptide substrate); format: biochemical; conditions: NS3 protease domain genotype 1b, NS4A peptide
T1 construct: Purified NS3 protease domain (amino acids 1-181) of the genotype 1b and 3a virus were generated as above; K3 hexahistidine tag (N); rTEV protease cleavage site (N); made in house; host or cells: E. coli BL21AI
T1 sequence (Q9WMX2 1027-1207 E1202G, other chains not shown): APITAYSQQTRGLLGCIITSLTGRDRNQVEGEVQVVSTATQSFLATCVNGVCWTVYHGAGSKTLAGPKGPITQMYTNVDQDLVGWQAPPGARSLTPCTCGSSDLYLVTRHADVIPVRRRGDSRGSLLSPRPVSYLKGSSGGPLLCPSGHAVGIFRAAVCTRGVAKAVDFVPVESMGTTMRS
Method in brief: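 NS3 protease domain (aa 1-181), 50 pM (1b) or 200 pM (3a), with 20 μM NS4A peptide, pre-incubated 1 h with inhibitor (100 nM–5 pM); 4 μM (1b) or 2 μM (3a) FRET depsipeptide substrate, room temperature, pH-unspecified HEPES buffer with 40% glycerol, 10% DMSO. Steady-state rates at 90–120 min (ex 340/em 490); Morrison fit gave Ki^app, corrected to Ki via substrate/Km.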

[8] = test system: genotype 2a stable HCV replicon (JFH-1) in Huh-7-derived cells; test: Stable subgenomic HCV replicon, genotype 2a, Renilla luciferase; format: cell-based; conditions: Hepatitis C virus, stable replicon genotype 2a, 72 h, read-out: EC50 2A RLUC
[9] = test system: genotype 1a (H77) wild-type transient HCV replicon in Huh-7-derived cells; test: Transient-transfected HCV replicon, genotype 1a wild type; format: cell-based; conditions: Hepatitis C virus; transient-transfected replicon genotype 1a wild type, 72 h; read-out: EC50 1A WT

SMILES	EC50 [1] [nM]	EC50 [2] [nM]	EC50 [3] [nM]	EC50 [4] [nM]	EC50 [5] [nM]	EC50 [6] [nM]	EC50 [7] [nM]	Ki (NS3 genotype 1b protease) [nM]	EC50 [8] [nM]	EC50 [9] [nM]
COc1ccc2nc3c(nc2c1)O[C@@H]1C[C@@H](C(=O)N[C@]2(C(=O)NS(=O)(=O)C4CC4)C[C@H]2C(F)F)N(C1)C(=O)[C@H](C(C)(C)C)NC(=O)O[C@@H]1C[C@@H]2C[C@@H]2[C@H]1CCCCC3 [Example 1, (1aS,2aR,6S,9S,11R,23aR,23bS)-6-tert-butyl-N-[(1R,2R)-1-[(cyclopropylsulfonyl)carbamoyl]-2-(difluoromethyl)cyclopropyl]-15-methoxy-4,7-dioxo-1a,2,2a,4,5,6,7,10,11,19,20,21,22,23,23a,23b-hexadecahydro-1H,9H-8,11-methanocyclopropa[4′,5′]cyclopenta[1′,2′:18,19][1,10,3,6]dioxadiazacyclononadecino[11,12-b]quinoxaline-9-carboxamide]	0.61	23	1	7.1	1.5	0.99	4.6	0.02	2.5	1
COc1ccc2nc3c(nc2c1)O[C@@H]1C[C@@H](C(=O)N[C@]2(C(=O)NS(=O)(=O)C4CC4)C[C@H]2C(F)F)N(C1)C(=O)[C@H](C(C)(C)C)NC(=O)O[C@@H]1[C@H]2CC[C@H](C2)[C@H]1CCCCC3 [Example 4, (1R,4S,4aR,8S,11S,13R,25aR)-8-tert-butyl-N-[(1R,2R)-1-[(cyclopropylsulfonyl)carbamoyl]-2-(difluoromethyl)cyclopropyl]-17-methoxy-6,9-dioxo-2,3,4,4a,6,7,8,9,12,13,21,22,23,24,25,25a-hexadecahydro-1H,11H-1, 4:10,13-dimethanoquinoxalino[2,3-k][1,10,3,6]benzodioxadiazacyclononadecine-11-carboxamide]	1.2	429	3.1	63	27	2.6	112	0.02	18	2.6
